Reference: ChEMBL document CHEMBL5725801, “Fused heterocyclic compounds as CaM kinase inhibitors” (2018)

Assay: CaMKII Cell-Based Activity: CaMKII activity in neonatal rat ventricular myocytes (NRVM) was measured by monitoring the phosphorylation level of phospholamban using high-content imaging. NRVMs were plated in a clear bottom 384-well plate in medium supplemented with 10% fetal bovine serum (FBS) and incubated at 37° C., 5% CO2 overnight. The medium was changed to a serum-free medium and compounds were dosed to the cells. The cells were incubated at 37° C., 5% CO2 for 4 hours and were then treated with 100 nM ATX-II (Alomone Labs) to activate CaMKII. 10 minutes after the addition of ATX-II, the cells were fixed with 4% formaldehyde followed by permeabilization with 0.1% triton X100. The fixed cells were stained with an anti-phospho-phospholamban primary antibody (Santa Cruz Biotechnology) and an Alexa488-labeled anti-rabbit IgG secondary antibody (Life Technologies Corporation) as well as Hoechst 33342 (Life Technologies Corporation). The cells were imaged using an ArrayScan VTI (Cellomics) and analyzed for cells containing a positive fluorescent signal at 485 nm, reported as % responder. The % responders were plotted against the compound concentration to determine the compounds EC50.
`CCN(CC)[C@@H](C)CNC(=O)c1cc(-c2cnn3ccc(-c4cccs4)nc23)nc(N2CC[C@H]2C(=O)N2CC(C)(C)C2)c1` showed an EC50 of 79 nM.
In the case of `CCN(CC)[C@@H](C)CNC(=O)c1cc(-c2cnn3ccc(-c4cccs4)nc23)nc(N2CC[C@@H](N)C2)c1`, the EC50 is reported as 68.8 nM.
With `CCN(CC)c1cc(C(=O)NC[C@H](C)N(CC)CC)cc(-c2cnn3ccc(-c4cccs4)nc23)n1` the EC50 was 40.4 nM.
With `CCN(CC)[C@@H](C)CNC(=O)c1cc(-c2cnn3ccc(-c4cccs4)nc23)nc(N2CC[C@H]2C(=O)N(C)OC)c1` the EC50 was 28.6 nM.
Compound `CCN(CC)[C@@H](C)CNC(=O)c1cc(-c2cnn3ccc(-c4cccs4)nc23)nc(N2CCC[C@@H]2C(N)=O)c1` has an EC50 of 166 nM.
For `COC1CN(c2cc(C(=O)N3[C@H]4CCNC[C@@H]3CC4)cc(-c3cnn4ccc(-c5cccs5)nc34)n2)C1`, the EC50 was 148 nM.
`CCN(CC)[C@@H](C)CNC(=O)c1cc(-c2cnn3ccc(-c4ccncc4)nc23)nc(N2CC(OC)C2)c1` showed an EC50 of 607 nM.
For `COC1CN(c2cc(C(=O)N3CC[C@H](N)C3)cc(-c3cnn4ccc(-c5cccs5)nc34)n2)C1`, the EC50 was 154 nM.
Work on `CCN(CC)[C@@H](C)CNC(=O)c1cc(-c2cnn3ccc(-c4cccs4)nc23)nc(N2CC[C@H](C(=O)NC)C2)c1` yielded an EC50 of 69.3 nM.
`CCN(CC)[C@@H](C)CNC(=O)c1cc(-c2cnn3ccc(-c4ccns4)nc23)nc(N2CC[C@H]2C(=O)NC)c1` gave an EC50 of 32.7 nM.
In the case of `CCN(CC)[C@@H](C)CNC(=O)c1cc(-c2cnn3ccc(-c4cccs4)nc23)nc(N2CC[C@H]2C(=O)N2CC3CC3C2)c1` (some centres not stated), the EC50 is reported as 33.9 nM.
In the case of `CCN(CC)[C@@H](C)CNC(=O)c1cc(-c2cnn3ccc(-c4cccs4)nc23)nc(N2CCC[C@@H]2COC)c1`, the EC50 is reported as 260 nM.
Compound `CCN(CC)[C@@H](C)CNC(=O)c1cc(-c2cnn3ccc(-c4cccs4)nc23)nc(N2CC[C@H]2C(=O)NCC2CC2)c1` has an EC50 of 33.4 nM.
`CCN(CC)[C@@H](C)CNC(=O)c1cc(-c2cnn3ccc(-c4cccs4)nc23)nc(N2CCC[C@@H]2CO)c1` showed an EC50 of 45.9 nM.
For `CCN(CC)[C@@H](C)CNC(=O)c1cc(-c2cnn3ccc(-c4cccs4)nc23)nc(N2CC[C@H]2C(=O)NCC(F)F)c1`, the EC50 was 27.5 nM.
`CC(C)(O)CNc1cc(C(=O)N2CC3CCC(C2)NC3)cc(-c2cnn3ccc(-c4cccs4)nc23)n1` (configuration not stated) gave an EC50 of 406 nM.
`CCN(CC)[C@@H](C)CNC(=O)c1cc(-c2cnn3ccc(-c4cccs4)nc23)nc(N2CC[C@H]2C(=O)N(C)C)c1` gave an EC50 of 10.7 nM.
Compound `CN(CCn1ccnc1)c1cc(C(=O)N2CC3CCC(C2)NC3)cc(-c2cnn3ccc(-c4cccs4)nc23)n1` (configuration not stated) has an EC50 of 449 nM.
`CCN(CC)[C@@H](C)CNC(=O)c1cc(-c2c(C)n[nH]c2C)nc(-c2cnn3ccc(-c4cccs4)nc23)c1` gave an EC50 of 9.37 nM.
With `CCN(CC)[C@@H](C)CNC(=O)c1cc(-c2c[nH]nc2C(F)(F)F)nc(-c2cnn3ccc(-c4cccs4)nc23)c1` the EC50 was 20.3 nM.
Work on `COC1CN(c2cc(C(=O)N3C4CC[C@@H]3CCNC4)cc(-c3cnn4ccc(-c5ccccc5)nc34)n2)C1` yielded an EC50 of 272 nM.
With `CCN(CC)CCNC(=O)c1cc(-c2cnn3ccc(-c4cccs4)nc23)nc(N2CC(C)(O)C2)c1` the EC50 was 53.7 nM.
Compound `CCN(CC)[C@@H](C)CNC(=O)c1cc(-c2cnn3ccc(-c4cccs4)nc23)nc(N2CC[C@H]2C(=O)N2CCOCC2)c1` has an EC50 of 21.3 nM.
In the case of `CCN(CC)[C@@H](C)CNC(=O)c1cc(-c2cnn3ccc(-c4cccs4)nc23)nc(N2CC[C@H]2C(=O)NCCO)c1`, the EC50 is reported as 84.9 nM.
For `CCN(CC)CCNC(=O)c1cc(NCCO)nc(-c2cnn3ccc(-c4cccs4)nc23)c1`, the EC50 was 136 nM.
`CCN(CC)[C@@H](C)CNC(=O)c1cc(-c2cnn3ccc(-c4cccs4)nc23)nc(N2CCC[C@H]2CO)c1` showed an EC50 of 112 nM.
Work on `CCN(CC)[C@@H](C)CNC(=O)c1cc(-c2cnn3ccc(-c4cccs4)nc23)nc(N2CC[C@H](N)C2)c1` yielded an EC50 of 68.7 nM.
Compound `CCN(CC)[C@@H](C)CNC(=O)c1cc(-c2cnn3ccc(-c4cccs4)nc23)nc(N2CCO[C@H](CO)C2)c1` has an EC50 of 43.5 nM.
For `CCN(CC)[C@@H](C)CNC(=O)c1cc(-c2cnn3ccc(-c4cccs4)nc23)nc(N2CCC[C@@H]2C(=O)NC)c1`, the EC50 was 815 nM.
In the case of `O=C(c1cc(-c2cnn3ccc(-c4cccs4)nc23)nc(N2CCN(C3COC3)CC2)c1)N1CC2CCC(C1)NC2` (configuration not stated), the EC50 is reported as 81.8 nM.
Compound `CCN(CC)[C@@H](C)CNC(=O)c1cc(-c2cnn3ccc(-c4cccs4)nc23)nc(N2CC[C@H]2C(=O)Nc2nccs2)c1` has an EC50 of 127 nM.
With `COC1CN(c2cc(C(=O)N3CC[C@H](N)C3)cc(-c3cnn4ccc(-c5ccccc5)nc34)n2)C1` the EC50 was 42.9 nM.
In the case of `CCN(CC)[C@@H](C)CNC(=O)c1cc(-c2cnn3ccc(-c4ccccc4)nc23)nc(N2CC[C@H]2C(=O)NC)c1`, the EC50 is reported as 146 nM.
With `CCN(CC)[C@@H](C)CNC(=O)c1cc(-c2cnoc2)nc(-c2cnn3ccc(-c4cccs4)nc23)c1` the EC50 was 29.7 nM.
Work on `CCN(CC)[C@@H](C)CNC(=O)c1cc(-c2cnn3ccc(-c4cccs4)nc23)nc(N2CC[C@H]2C(=O)N2CC(OC)C2)c1` yielded an EC50 of 32.5 nM.
With `CCN(CC)[C@@H](C)CNC(=O)c1cc(-c2cnn3ccc(-c4cccs4)nc23)nc(N2CC[C@H]2C(N)=O)c1` the EC50 was 36 nM.
With `CCN(CC)[C@@H](C)CNC(=O)c1cc(-c2cnn3ccc(-c4cccs4)nc23)nc(N2CC[C@H]2C(=O)N2CCCC2)c1` the EC50 was 22.3 nM.
In the case of `CCN(CC)[C@@H](C)CNC(=O)c1cc(-c2cnn3ccc(-c4cccs4)nc23)nc(N2CCC(C(N)=O)CC2)c1`, the EC50 is reported as 115 nM.
`CCN(CC)[C@@H](C)CNC(=O)c1cc(-c2cnn3ccc(-c4cccs4)nc23)nc(N2CC[C@H]2C(=O)N(C)O)c1` showed an EC50 of 25.6 nM.
Compound `CCN(CC)[C@@H](C)CNC(=O)c1cc(-c2cnn3ccc(-c4cccs4)nc23)nc(N2CC[C@@H](C(=O)NC)C2)c1` has an EC50 of 46.9 nM.
In the case of `CNC(=O)[C@@H]1CCN1c1cc(C(=O)NC[C@H](C)N)cc(-c2cnn3ccc(-c4cccs4)nc23)n1`, the EC50 is reported as 6740 nM.
Compound `CCN(CC)[C@@H](C)CNC(=O)c1cc(-c2cnn3ccc(-c4cccs4)nc23)nc(N2CC[C@H]2C(=O)NCC#N)c1` has an EC50 of 65.3 nM.
In the case of `CCN(CC)[C@@H](C)CNC(=O)c1cc(-c2cnn3ccc(-c4cccs4)nc23)nc(N2CCC[C@H]2C(N)=O)c1`, the EC50 is reported as 259 nM.
In the case of `CCN(CC)[C@@H](C)CNC(=O)c1cc(-c2cnn3ccc(-c4cccs4)nc23)nc(N2CC[C@H]2C(=O)O)c1`, the EC50 is reported as 89.3 nM.
With `CCN(CC)[C@@H](C)CNC(=O)c1cc(-c2cnn3ccc(-c4cccs4)nc23)nc(N2CC[C@H]2C(=O)N2CC(F)C2)c1` the EC50 was 16.2 nM.
Compound `CCN(CC)[C@@H](C)CNC(=O)c1cc(-c2cnn3ccc(-c4cccs4)nc23)nc(N2CC[C@H]2C(=O)NCCOC)c1` has an EC50 of 47.1 nM.
`CCN(CC)[C@@H](C)CNC(=O)c1cc(-c2cc[nH]n2)nc(-c2cnn3ccc(-c4cccs4)nc23)c1` showed an EC50 of 14.5 nM.
In the case of `CCN(CC)C(=O)[C@@H]1CCN1c1cc(C(=O)NC[C@H](C)N(CC)CC)cc(-c2cnn3ccc(-c4cccs4)nc23)n1`, the EC50 is reported as 25.2 nM.
In the case of `CCN(CC)[C@@H](C)CNC(=O)c1cc(-c2cnn3ccc(-c4cccs4)nc23)nc(N2CC[C@H]2COC)c1`, the EC50 is reported as 78.4 nM.
`CCN(CC)[C@@H](C)CNC(=O)c1cc(-c2cnn3ccc(-c4cccs4)nc23)nc(N2CCNC(=O)C2)c1` gave an EC50 of 96 nM.
Work on `CCN(CC)[C@@H](C)CNC(=O)c1cc(-c2cnn3ccc(-c4cccs4)nc23)nc(N2CC[C@H]2C(=O)NCC(F)(F)F)c1` yielded an EC50 of 41.6 nM.
In the case of `CCN(CC)[C@@H](C)CNC(=O)c1cc(-c2cnn3ccc(-c4cccs4)nc23)nc(N2CC[C@H]2C(=O)N2CC(O)C2)c1`, the EC50 is reported as 152 nM.
For `CCN(CC)[C@@H](C)CNC(=O)c1cc(-c2cnn(C)c2)nc(-c2cnn3ccc(-c4cccs4)nc23)c1`, the EC50 was 8.24 nM.
`CCN(CC)[C@@H](C)CNC(=O)c1cc(-c2cnn3ccc(-c4cccs4)nc23)nc(N2CC[C@H]2C(=O)N2CC(S(C)(=O)=O)C2)c1` showed an EC50 of 281 nM.
`COC1CN(c2cc(C(=O)N3CC4CCC(C3)NC4)cc(-c3cnn4ccc(-c5cccs5)nc34)n2)C1` (configuration not stated) gave an EC50 of 63.6 nM.
With `CCN(CC)[C@@H](C)CNC(=O)c1cc(-c2cnn3ccc(-c4cccs4)nc23)nc(N2CC[C@H]2C(=O)N2CC(NS(C)(=O)=O)C2)c1` the EC50 was 147 nM.
For `CCN(CC)[C@@H](C)CNC(=O)c1cc(-c2cn[nH]c2)nc(-c2cnn3ccc(-c4cccs4)nc23)c1`, the EC50 was 13.5 nM.
`COCCNc1cc(C(=O)N2CC3CCC(C2)NC3)cc(-c2cnn3ccc(-c4cccs4)nc23)n1` (configuration not stated) gave an EC50 of 124 nM.
`CCN[C@@H](C)CNC(=O)c1cc(-c2cnn3ccc(-c4cccs4)nc23)nc(N2CC[C@H]2C(=O)NC)c1` gave an EC50 of 654 nM.
Work on `CCN(CC)[C@@H](C)CNC(=O)c1cc(-c2cnn3ccc(-c4cccs4)nc23)nc(-c2cnn3ccc(-c4cccs4)nc23)c1` yielded an EC50 of 794 nM.
Work on `CCNC(=O)[C@@H]1CCN1c1cc(C(=O)NC[C@H](C)N(CC)CC)cc(-c2cnn3ccc(-c4cccs4)nc23)n1` yielded an EC50 of 28.5 nM.
`CCN(CC)[C@@H](C)CNC(=O)c1cc(-c2cnn(C3COC3)c2)nc(-c2cnn3ccc(-c4cccs4)nc23)c1` showed an EC50 of 12.3 nM.
For `CCNc1cc(C(=O)NC[C@H](C)N(CC)CC)cc(-c2cnn3ccc(-c4cccs4)nc23)n1`, the EC50 was 97.8 nM.
`CCN(CC)[C@@H](C)CNC(=O)c1cc(-c2c[nH]nc2C)nc(-c2cnn3ccc(-c4cccs4)nc23)c1` showed an EC50 of 70.4 nM.
`CCN(CC)[C@@H](C)CNC(=O)c1cc(-c2cnn3ccc(-c4cccs4)nc23)nc(N2CC[C@H]2C(=O)NC2CC2)c1` showed an EC50 of 28 nM.
With `CCN(CC)[C@@H](C)CNC(=O)c1cc(-c2cnn3ccc(-c4cccs4)nc23)nc(N2CC[C@H]2C(=O)N2CCS(=O)(=O)CC2)c1` the EC50 was 118 nM.
For `CCN(CC)[C@@H](C)CNC(=O)c1cc(-c2cnn3ccc(-c4cccs4)nc23)nc(N2CC[C@@H]2COC)c1`, the EC50 was 80.1 nM.
With `COC1CN(c2cc(C(=O)N3CC4CCC(C3)NC4)cc(-c3cnn4ccc(-c5ccccc5)nc34)n2)C1` (configuration not stated) the EC50 was 95.6 nM.
Compound `CCN(CC)[C@@H](C)CNC(=O)c1cc(-c2cnn3ccc(-c4cccs4)nc23)nc(N2CC[C@H]2C(=O)NCCF)c1` has an EC50 of 53 nM.
With `CCN(CC)[C@@H](C)CNC(=O)c1cc(-c2cnn3ccc(-c4cccs4)nc23)nc(N2CC[C@H]2C(=O)NOC)c1` the EC50 was 84.2 nM.
`CCN(CC)[C@@H](C)CNC(=O)c1cc(-c2cnn3ccc(-c4cccs4)nc23)nc(N2CC[C@H]2C(=O)N2CC(F)(F)C2)c1` gave an EC50 of 29.4 nM.
`CCN(CC)[C@@H](C)CNC(=O)c1cc(-c2cnn3ccc(-c4cccs4)nc23)nc(N2CCC[C@H]2C(=O)NC)c1` showed an EC50 of 114 nM.
